Among the test systems are HOP-92 NSCLC; OVCAR-5 ovarian; KM12 colon; OVCAR-3 ovarian; EKVX NSCLC; HL-60(TB) leukemia; SK-MEL-5 melanoma; HS 578T breast.
Common to all, as to assay: growth of human tumour cells (NCI), 48 h

SMILES strings stand for the structures.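 Compound exposure: 48 hours, 5 concentrations, 96-well plates. At the TGI there is no net growth.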

With `Cc1csc(-n2c(C)nc3cc(Cl)ccc3c2=O)n1`, the TGI was above 100 µM with HOP-92 NSCLC; above 100 µM in the experiment with OVCAR-5 ovarian; above 100 µM in the experiment on KM12 colon; above 100 µM in the experiment with OVCAR-3 ovarian; 81.4 µM in the experiment on EKVX NSCLC; above 100 µM with HL-60(TB) leukemia. This compound also came in with a TGI in the experiment with SK-MEL-5 melanoma above 100 µM.
In the case of `CC(C)=NOC(=O)Nc1cccc2c1OCO2`, the TGI in the experiment on HOP-92 NSCLC, in the experiment with OVCAR-5 ovarian, in the experiment with KM12 colon, in the experiment on OVCAR-3 ovarian, in the experiment with EKVX NSCLC and with SK-MEL-5 melanoma was above 100 µM throughout. This compound also gave a TGI in the experiment on HS 578T breast above 100 µM.
With `O=C(O)c1ccc(N/C(=C(/C(Cl)=C(Cl)Cl)[N+](=O)[O-])n2nnc3ccccc32)cc1`, the TGI with OVCAR-5 ovarian, with KM12 colon, with OVCAR-3 ovarian, in the experiment on EKVX NSCLC and with HS 578T breast was above 100 µM each time.
Regarding `CC(C)C(NC(=O)C(Cc1ccccc1)NC(=O)[C@H]1CCC[C@H]1NC(=O)C(Cc1ccc(OC(C)(C)C)cc1)NC(=O)OC(C)(C)C)C(N)=O` (some centres undefined), the TGI is 48.9 µM in the experiment on HOP-92 NSCLC; 36.2 µM in the experiment with OVCAR-5 ovarian; 41.8 µM in the experiment on KM12 colon; 69.3 µM in the experiment with OVCAR-3 ovarian; above 100 µM in the experiment with EKVX NSCLC; above 100 µM in the experiment with HL-60(TB) leukemia. The TGI in the experiment on SK-MEL-5 melanoma was determined as 21.5 µM.
On to `O=C1CC(c2ccccc2)S(=O)c2ccccc2N1` (centres undefined), for which the TGI with OVCAR-5 ovarian, with KM12 colon, in the experiment on OVCAR-3 ovarian, in the experiment on EKVX NSCLC, in the experiment with HL-60(TB) leukemia and in the experiment with SK-MEL-5 melanoma was above 100 µM in each case. Moreover, in the experiment on HS 578T breast, the TGI is above 100 µM.
For `Cc1ccc(/C=C2/N=C(N/N=C\c3ccccc3)NC2=O)cc1`, the TGI in the experiment with OVCAR-5 ovarian is above 100 µM; with KM12 colon, above 100 µM; in the experiment with OVCAR-3 ovarian it was above 100 µM; with EKVX NSCLC, above 100 µM; with SK-MEL-5 melanoma it was above 100 µM; in the experiment with HS 578T breast, 85.3 µM.
As for `O=c1cc(N2CCCC2)[nH]c(=O)n1-c1ccc(Cl)cc1`, the TGI with HOP-92 NSCLC, in the experiment with OVCAR-5 ovarian, in the experiment with KM12 colon, in the experiment with OVCAR-3 ovarian, in the experiment with EKVX NSCLC and in the experiment on HL-60(TB) leukemia was above 100 µM in each case. In the experiment with HS 578T breast, this compound returned a TGI above 100 µM.
For the compound `Cc1ccc(S(=NS(=O)(=O)c2ccc(C)cc2)c2ccc(C)cc2)cc1`, the TGI with HOP-92 NSCLC, with OVCAR-5 ovarian, with KM12 colon, in the experiment with OVCAR-3 ovarian, in the experiment with EKVX NSCLC and in the experiment on HL-60(TB) leukemia was above 100 µM each time.
For the compound `COc1ccc2c(c1)CCC/C2=N\NS(=O)(=O)c1c(C)cc(C)cc1C`, the TGI is 54.7 µM with HOP-92 NSCLC; above 100 µM with OVCAR-5 ovarian; 32.9 µM with KM12 colon; above 100 µM in the experiment on OVCAR-3 ovarian; 98.5 µM with EKVX NSCLC; 33.4 µM with SK-MEL-5 melanoma. In addition, the TGI in the experiment on HS 578T breast came to 61.8 µM.
As to `COc1ccc(-n2cnc3c(NC(Cc4ccccc4)C(=O)O)ncnc32)cc1` (centres undefined), the TGI in the experiment on HOP-92 NSCLC, in the experiment on OVCAR-5 ovarian, in the experiment on KM12 colon, in the experiment on OVCAR-3 ovarian, in the experiment with EKVX NSCLC and in the experiment with SK-MEL-5 melanoma was above 100 µM in each case. In the experiment on HS 578T breast, this compound came in with a TGI above 100 µM.
For the compound `Nc1cc2c3c(cccc3c1)C(=O)N(c1ccc(OCCN3CCCC3)cc1)C2=O`, the TGI came out at 50.6 µM in the experiment with HOP-92 NSCLC; 46.3 µM in the experiment on OVCAR-5 ovarian; 31.1 µM in the experiment with KM12 colon; 29.7 µM with OVCAR-3 ovarian; 46.1 µM in the experiment with EKVX NSCLC; 36.9 µM in the experiment on SK-MEL-5 melanoma. In addition, the TGI in the experiment on HS 578T breast amounted to 55.7 µM.
Consider `CN1CCC2(CC1)C(=NC1CCCCC1)NC(=O)N2c1ccccc1`, for which the TGI with HOP-92 NSCLC, with OVCAR-5 ovarian, in the experiment on KM12 colon, in the experiment on EKVX NSCLC, in the experiment on HL-60(TB) leukemia and with SK-MEL-5 melanoma was above 100 µM throughout. In the experiment with HS 578T breast, this compound displayed a TGI above 100 µM.
For `O=[N+]([O-])C(C=C(n1nnc2ccccc21)n1nnc2ccccc21)=C(n1nnc2ccccc21)n1nnc2ccccc21`, the TGI with HOP-92 NSCLC, in the experiment with OVCAR-5 ovarian, in the experiment on KM12 colon, in the experiment with OVCAR-3 ovarian, in the experiment with EKVX NSCLC and with HL-60(TB) leukemia was above 100 µM throughout. In the experiment with HS 578T breast, the TGI is above 100 µM.
For `O=c1[nH]nc(-c2ccccc2)n1-n1cnnc1`, the TGI with HOP-92 NSCLC, in the experiment with OVCAR-5 ovarian, with KM12 colon, in the experiment with OVCAR-3 ovarian, in the experiment on EKVX NSCLC and with SK-MEL-5 melanoma was above 100 µM in each case. In the experiment on HS 578T breast, this compound displayed a TGI above 100 µM.
As to `Clc1cc2nnn(C3CCCO3)c2cc1Cl` (centres undefined), the TGI in the experiment with OVCAR-5 ovarian, with OVCAR-3 ovarian, in the experiment with EKVX NSCLC, with HL-60(TB) leukemia, with SK-MEL-5 melanoma and with HS 578T breast was above 100 µM in each case.
Regarding `CC(=O)OCC1OC(n2c(-c3ccccc3)c(N=Nc3ccc(C)cc3)c(C)c(C#N)c2=S)C(OC(C)=O)C(OC(C)=O)C1OC(C)=O` (centres undefined), the TGI is 0.856 µM in the experiment on HOP-92 NSCLC; 51.6 µM in the experiment on OVCAR-5 ovarian; above 100 µM in the experiment with KM12 colon; 64.7 µM in the experiment on OVCAR-3 ovarian; above 100 µM in the experiment with HL-60(TB) leukemia.
In the case of `C=C1C(=O)OC2C3OC(C)(CCC(O)C3COC(C)=O)CC(OC(=O)/C(=C/C)COC(C)=O)C12` (centres undefined), the TGI in the experiment on HOP-92 NSCLC was determined as 0.392 µM; with OVCAR-5 ovarian, 1.12 µM; in the experiment on KM12 colon, 3.45 µM; in the experiment on OVCAR-3 ovarian, 0.983 µM; with EKVX NSCLC it was 1.61 µM; in the experiment on SK-MEL-5 melanoma, 2.65 µM. In addition, the TGI in the experiment on HS 578T breast amounted to 31.3 µM.
`O=C1N(c2ccccc2)C(=S)/C(=C/c2ccc(Cl)cc2)N1c1ccc(Cl)cc1`: the TGI is above 100 µM in the experiment on OVCAR-5 ovarian; above 100 µM in the experiment with KM12 colon; above 100 µM with OVCAR-3 ovarian; above 100 µM in the experiment on EKVX NSCLC; 74.4 µM in the experiment with HL-60(TB) leukemia; above 100 µM in the experiment on SK-MEL-5 melanoma. The TGI with HS 578T breast was above 100 µM.

Source of the values: PubChem BioAssay (NCI).
